Data: patent US20240238300A1, “TREATMENT METHODS FOR SUBJECTS WITH CANCER HAVING AN ABERRATION IN EGFR AND/OR HER2” (TAIHO PHARMACEUTICAL CO., LTD., priority 2021, published 2024)
Like-named read-outs stand apart in the source and are kept apart here.

Experiments:
[1] = molecular target: DDR1 (Homo sapiens, UniProt Q08345); test: panel enzyme assay of 257 kinases; format: biochemical; conditions: read-out: % Inhibition by Compound (1) at 1000 nmol/L
Method: (§1) To investigate further kinase selectivity of Compound (1), a panel enzyme assay of 257 kinases for Compound (1) was conducted.

[2] = molecular target: KDR (Homo sapiens, UniProt P35968); test: panel enzyme assay of 257 kinases; format: biochemical; conditions: read-out: % Inhibition by Compound (1) at 1000 nmol/L
Method: as §1

[3] = system: SK-BR-3 cells; test: feedback activation of HER3, downstream targets and apoptosis markers in SK-BR-3 cells; format: cell-based, human; conditions: 48 hours
Excerpt: The effect of Compound (1) on feedback activation of HER3, its downstream targets (ERK and AKT), and apoptosis markers (BIM and cleaved PARP) in SK-BR-3 cells was investigated. In addition, the same information for lapatinib and tucatinib (a reversible inhibitor of HER2) was obtained.

[4] = system: BT-474 cells; test: growth inhibitory effect in human cancer cell lines (GI50); format: cell-based; conditions: breast cancer, HER2 gene amplification
Excerpt: (§2) Among the 9 cell lines tested, HER2 gene amplification has previously been reported in BT-474 cells (breast cancer) and NCI-N87 cells (gastric cancer), while HER2 gene mutation (DelG776insVC) has been reported in NCI-H1781 cells (lung cancer).

[5] = system: NCI-H1781 cells; test: as above; format: cell-based; conditions: lung cancer, HER2 DelG776insVC
Excerpt: as §2

[6] = system: NCI-N87 cells; test: as above; format: cell-based; conditions: gastric cancer, HER2 gene amplification
Excerpt: as §2

[7] = system: MCF10A_HER2/insYVMA cells; test: as above; format: cell-based; conditions: engineered to express HER2 A775_G776insYVMA
[8] = system: intracranial NCI-N87-luc human gastric carcinoma xenografts; test: intracranial antitumor effect, NCI-N87-luc xenografts; format: in vivo, nude mice; conditions: Day 22
Method: The intracranial antitumor effect of Compound (1) was evaluated using Compound (1) in nude mice intracranially implanted with NCI-N87-luc cells, which were engineered to stably express the luciferase gene using the HER2-overexpressing NCI-N87 human gastric carcinoma cell line. Compound (1) dosing suspensions using 0.5% w/v HPMC as vehicle were prepared with Compound (1) at 3 dose levels (16.0, 20.0, or 25.0 mg/kg/day) and administered PO QD for 21 days. The control group received 0.5% weight per volume (w/v) hydroxypropyl methylcellulose (HPMC) solution orally once daily for 21 days. The antitumor effect of poziotinib was also evaluated using this model. Poziotinib was administered PO QD for 21 days at 2 dose levels (0.5 or 1.0 mg/kg/day).

[9] = brain binding, brain homogenate, equilibrium dialysis; format: in vitro ADME, nude mouse
Method: Brain binding of Compound (1) in nude mice. Brain binding of Compound (1) at 0.005, 0.01, 0.05, 0.1, and 0.5 μmol/L using nude mouse brain homogenate was evaluated by equilibrium dialysis method. The brain binding at […] was not calculated due to the limit of quantification by LC-MS/MS, but at 0.05, 0.1, and 0.5 μmol/L was 99.6±0.0%, 99.5±0.0%, and 99.5±0.0%, respectively.

[10] = system: T1, BCRP; test: substrate susceptibility on human BCRP, bidirectional transcellular transport, BCRP/MDCK II cells; format: in vitro ADME; conditions: human, with Ko143 10 μmol/L; read-out: net flux ratio
T1 construct: expressed in transfected cells; host or cells: MDCK II (canine kidney) cells expressing human BCRP; parent MDCK II as control
Method: (§3) Substrate susceptibility of Compound (1) on human BCRP. Time-dependence of the bidirectional transcellular transport of 0.3, 0.5, 1, 3, and 30 μmol/L Compound (1) across human BCRP/Madin-Darby canine kidney II (MDCK II) cells and parent/MDCK II cells was analyzed.

[11] = system: T2, human BCRP; test: as above; format: in vitro ADME; conditions: human
T2 construct: expressed in transfected cells; host or cells: MDCK II (canine kidney) cells expressing human BCRP; parent MDCK II as control
Method: as §3

[12] = system: NCI-N87 xenografts relapsed from T-DM1; conditions: for T/C: Step II Day 22, vs T-DM1 group; for Number of Death / TV (mean ± SE): Step II Day 22
Method: Male nude mice (BALB/cAJ1-mu/mu) were implanted with NCI-N87 human gastric carcinoma (HER2 overexpressing); 1.0×10^7 cells in 100 μL of PBS were implanted subcutaneously per mouse.
PO; or treated with an oral suspension of Compound (1) once per day at a dosage of 25 mg/kg/day, PO. The tumor volumes (TV, mm^3) and body weights of the mice were recorded.

[13] = molecular target: T3, human BCRP (Homo sapiens, UniProt Q9UNQ0); conditions: not told
T3 sequence (Q9UNQ0 1-655): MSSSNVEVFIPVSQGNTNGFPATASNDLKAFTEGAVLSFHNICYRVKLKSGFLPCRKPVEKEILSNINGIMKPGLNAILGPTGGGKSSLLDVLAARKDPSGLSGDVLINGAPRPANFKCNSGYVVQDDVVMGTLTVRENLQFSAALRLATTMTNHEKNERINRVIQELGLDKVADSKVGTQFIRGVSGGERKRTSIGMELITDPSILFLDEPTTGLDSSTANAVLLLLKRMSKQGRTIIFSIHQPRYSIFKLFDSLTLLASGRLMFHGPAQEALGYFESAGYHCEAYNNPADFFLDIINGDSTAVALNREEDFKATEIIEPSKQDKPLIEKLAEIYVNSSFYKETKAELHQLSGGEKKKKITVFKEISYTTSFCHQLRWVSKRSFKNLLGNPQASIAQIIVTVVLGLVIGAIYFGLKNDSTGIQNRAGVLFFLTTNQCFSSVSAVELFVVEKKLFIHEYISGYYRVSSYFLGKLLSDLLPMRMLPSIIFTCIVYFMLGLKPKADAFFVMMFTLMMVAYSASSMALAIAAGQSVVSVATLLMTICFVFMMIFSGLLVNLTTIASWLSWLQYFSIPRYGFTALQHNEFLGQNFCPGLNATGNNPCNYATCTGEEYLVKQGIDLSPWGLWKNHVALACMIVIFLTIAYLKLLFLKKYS

Sequence of KDR (P35968 20-1356, species assumed): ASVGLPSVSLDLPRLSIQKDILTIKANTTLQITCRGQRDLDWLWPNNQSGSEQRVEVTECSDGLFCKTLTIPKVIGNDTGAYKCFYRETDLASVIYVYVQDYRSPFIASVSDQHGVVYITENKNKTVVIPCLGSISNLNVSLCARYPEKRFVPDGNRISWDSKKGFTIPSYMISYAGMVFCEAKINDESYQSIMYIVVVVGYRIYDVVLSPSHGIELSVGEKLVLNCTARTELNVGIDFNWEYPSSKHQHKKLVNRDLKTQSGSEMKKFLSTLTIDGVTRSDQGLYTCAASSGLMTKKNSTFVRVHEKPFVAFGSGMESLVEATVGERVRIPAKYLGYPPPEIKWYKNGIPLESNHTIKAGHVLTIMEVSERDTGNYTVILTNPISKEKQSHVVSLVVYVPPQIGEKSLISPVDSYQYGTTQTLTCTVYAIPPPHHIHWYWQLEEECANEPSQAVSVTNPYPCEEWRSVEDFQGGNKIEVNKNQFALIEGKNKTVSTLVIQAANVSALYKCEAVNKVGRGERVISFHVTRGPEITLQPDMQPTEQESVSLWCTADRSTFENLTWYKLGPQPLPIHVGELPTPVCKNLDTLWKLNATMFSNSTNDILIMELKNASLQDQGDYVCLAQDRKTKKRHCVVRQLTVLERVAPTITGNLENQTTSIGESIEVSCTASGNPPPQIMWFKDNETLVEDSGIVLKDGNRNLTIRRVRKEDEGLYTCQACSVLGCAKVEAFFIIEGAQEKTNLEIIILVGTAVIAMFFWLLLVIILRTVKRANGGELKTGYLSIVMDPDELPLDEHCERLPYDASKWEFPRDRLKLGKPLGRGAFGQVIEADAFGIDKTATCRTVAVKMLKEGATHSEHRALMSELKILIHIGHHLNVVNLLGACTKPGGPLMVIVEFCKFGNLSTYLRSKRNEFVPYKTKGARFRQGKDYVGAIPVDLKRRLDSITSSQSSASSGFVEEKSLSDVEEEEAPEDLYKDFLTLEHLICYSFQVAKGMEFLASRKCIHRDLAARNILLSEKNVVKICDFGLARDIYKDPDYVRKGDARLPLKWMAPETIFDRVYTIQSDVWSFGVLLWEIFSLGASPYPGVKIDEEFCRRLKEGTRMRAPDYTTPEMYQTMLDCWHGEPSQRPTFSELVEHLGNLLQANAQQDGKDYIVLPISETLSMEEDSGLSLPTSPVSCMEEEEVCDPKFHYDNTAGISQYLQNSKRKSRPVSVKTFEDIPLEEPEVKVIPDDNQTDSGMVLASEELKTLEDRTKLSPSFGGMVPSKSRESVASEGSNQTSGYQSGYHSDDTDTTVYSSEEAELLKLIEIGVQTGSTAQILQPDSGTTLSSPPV
Sequence of DDR1 (Q08345 19-913, species assumed): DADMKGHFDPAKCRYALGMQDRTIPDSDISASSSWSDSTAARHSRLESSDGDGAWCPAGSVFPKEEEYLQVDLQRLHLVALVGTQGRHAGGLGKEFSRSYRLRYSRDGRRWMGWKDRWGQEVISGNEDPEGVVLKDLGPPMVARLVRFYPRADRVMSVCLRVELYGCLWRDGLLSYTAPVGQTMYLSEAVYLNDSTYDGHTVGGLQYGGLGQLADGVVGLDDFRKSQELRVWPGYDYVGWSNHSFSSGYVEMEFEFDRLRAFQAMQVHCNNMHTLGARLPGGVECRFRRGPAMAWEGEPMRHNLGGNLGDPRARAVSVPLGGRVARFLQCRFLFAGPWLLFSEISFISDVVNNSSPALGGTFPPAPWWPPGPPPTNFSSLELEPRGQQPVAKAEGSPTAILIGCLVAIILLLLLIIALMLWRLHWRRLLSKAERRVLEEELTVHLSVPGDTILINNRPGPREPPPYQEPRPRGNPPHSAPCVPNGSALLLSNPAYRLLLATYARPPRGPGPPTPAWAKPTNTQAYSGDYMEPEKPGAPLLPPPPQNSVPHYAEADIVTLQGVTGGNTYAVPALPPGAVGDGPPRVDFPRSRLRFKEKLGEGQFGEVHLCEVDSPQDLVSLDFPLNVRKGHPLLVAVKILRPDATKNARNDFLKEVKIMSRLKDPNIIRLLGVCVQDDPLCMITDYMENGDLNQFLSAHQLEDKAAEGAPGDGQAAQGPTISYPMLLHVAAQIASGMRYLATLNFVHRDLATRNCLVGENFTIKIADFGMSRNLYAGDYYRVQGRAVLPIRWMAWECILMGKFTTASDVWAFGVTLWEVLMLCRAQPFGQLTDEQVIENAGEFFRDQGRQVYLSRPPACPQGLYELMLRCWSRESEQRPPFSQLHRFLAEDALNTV

SMILES: C=CC(=O)N1C[C@H](n2c(C#CC3CC3)c(C(=O)N[C@H](C)c3ccccc3)c3c(N)ncnc32)C[C@@H]1C [Compound (1), 7-((3R,5S)-1-acryloyl-5-methylpyrrolidin-3-yl)-4-amino-6-(cyclopropylethynyl)-N—((R)-1-phenylethyl)-7H-pyrrolo[2,3-d]pyrimidine-5-carboxamide]
- inhibition at 1 µM [1]: 86%
- inhibition at 1 µM [2]: 67.2%
- BIM and cleaved PARP ([3]; 10 to 100 nmol/L): markedly increased
- phosphorylation of HER2, HER3, AKT, and ERK ([3]; concentrations starting as low as 10 nmol/L): sustained inhibition
- GI50 [4]: 2.05 ± 0.48 nM
- GI50 [5]: 5.85 ± 2.83 nM
- GI50 [6]: 0.891 ± 0.312 nM
- GI50 [7]: 23.3 ± 1.4 nM
- T/C ratio of the mean total flux ([8]; 16.0 mg/kg/day PO QD 21 days): 16.9%
- mean body weight change (BWC) ([8]; 16.0 mg/kg/day): 1.4%
- T/C ratio of the mean total flux ([8]; 20.0 mg/kg/day PO QD 21 days): 4.7%
- mean body weight change (BWC) ([8]; 20.0 mg/kg/day): −0.4%
- brain binding ([9]; 0.05 μmol/L): 99.6±0.0%
- brain binding ([9]; 0.1 μmol/L): 99.5±0.0%
- brain binding ([9]; 0.5 μmol/L): 99.5±0.0%
- efflux ratio at 2 h [10]: 2 ± 0.5
- efflux ratio at 3 h [10]: 1.4 ± 0.2
- efflux ratio at 2 h, 0.5 μmol/L ([11]; with Ko143 10 μmol/L, read-out: net flux ratio): 1.2 ± 0.3
- efflux ratio at 4 h, 0.3 μmol/L ([11]; with Ko143 (concentration not stated for this arm), read-out: net flux ratio): 1.1 ± 0.2
- efflux ratio at 0.3 μmol/L ([11]; 0.3 μmol/L Compound (1), 3 and 4 hours, read-out: flux ratios in parent and human BCRP/MDCK II cells): > 2
- body weight loss (tolerance) ([12]; 12.5 and 25 mg/kg/day): did not cause severe body weight loss
- T/C ([12]; 12.5 mg/kg/day po Days 1-21): 75.7%
- T/C ([12]; 25 mg/kg/day po Days 1-21): 62.4%
- Number of Death ([12]; 12.5 mg/kg/day po Days 1-21): 0
- TV (mean ± SE) ([12]; 12.5 mg/kg/day po Days 1-21): 435.7 mm^3
- Number of Death ([12]; 25 mg/kg/day po Days 1-21): 0
- TV (mean ± SE) ([12]; 25 mg/kg/day po Days 1-21): 353.7 mm^3
- net flux ratio of [^3H]prazosin ([13]; 0.01 μmol/L): 4.6±0.4
- net flux ratio of [^3H]prazosin ([13]; 0.1 μmol/L): 4.0±0.3
- net flux ratio of [^3H]prazosin ([13]; 0.5 μmol/L): 2.7±0.2
- net flux ratio of [^3H]prazosin ([13]; 1 μmol/L): 1.8±0.2
- net flux ratio of [^3H]prazosin ([13]; 5 μmol/L): 1.3±0.2
- net flux ratio of [^3H]prazosin ([13]; 10 μmol/L): 1.1±0.1
